Numbers after ± are expanded uncertainties.
COC(C)(C)C [2-methoxy-2-methylpropane]
Liquid, Brillouin light scattering
Settings	speed of sound [m/s]
388.22 K, 1000 kPa	646.4 ± 6.7
388.24 K, 2500 kPa	670.7 ± 6.9
388.24 K, 10000 kPa	768.1 ± 8
388.25 K, 8500 kPa	751.1 ± 7.9
393.11 K, 5500 kPa	691.8 ± 7.4
393.13 K, 1000 kPa	619 ± 6.4
393.13 K, 4000 kPa	669.1 ± 6.9
393.13 K, 8500 kPa	736.3 ± 7.7
393.16 K, 2500 kPa	643.2 ± 6.7
393.22 K, 7000 kPa	714.5 ± 7.6
393.22 K, 10000 kPa	753.4 ± 7.8
398.1 K, 5500 kPa	671.4 ± 7.2
398.11 K, 1000 kPa	594.9 ± 6.2
398.18 K, 2500 kPa	624.4 ± 6.5
398.18 K, 4000 kPa	647.1 ± 6.7
398.2 K, 8500 kPa	715.9 ± 7.6
398.24 K, 10000 kPa	733.5 ± 7.7
398.25 K, 7000 kPa	692.8 ± 7.4
403.07 K, 7000 kPa	672.1 ± 7.3
403.11 K, 2500 kPa	602.6 ± 6.3
403.12 K, 1000 kPa	574.7 ± 6
403.12 K, 4000 kPa	627.2 ± 6.5
403.14 K, 5500 kPa	649.2 ± 7
403.14 K, 10000 kPa	716.1 ± 7.5
403.16 K, 8500 kPa	697.5 ± 7.4
408.09 K, 7000 kPa	657.5 ± 7.1
408.16 K, 4000 kPa	605.6 ± 6.3
408.19 K, 5500 kPa	631.8 ± 7
408.21 K, 8500 kPa	679.5 ± 7.2
408.23 K, 2500 kPa	576.4 ± 6
408.24 K, 10000 kPa	697.8 ± 7.3
413.06 K, 10000 kPa	682.3 ± 7.2
413.08 K, 4000 kPa	585.4 ± 6.1
413.14 K, 8500 kPa	661.5 ± 7.1
413.16 K, 5500 kPa	612.9 ± 6.8
413.19 K, 2500 kPa	557.9 ± 5.9
413.24 K, 7000 kPa	638.1 ± 7
418.07 K, 4000 kPa	565.2 ± 5.9
418.07 K, 7000 kPa	617.5 ± 6.8
418.08 K, 10000 kPa	661.5 ± 7.2
418.11 K, 8500 kPa	639.1 ± 6.9
418.19 K, 2500 kPa	535.7 ± 5.7
418.23 K, 5500 kPa	588.6 ± 6.6
423.05 K, 7000 kPa	595.1 ± 6.7
423.06 K, 2500 kPa	511.7 ± 5.5
423.06 K, 4000 kPa	541.9 ± 5.8
423.11 K, 8500 kPa	624.1 ± 6.9
423.12 K, 10000 kPa	647.8 ± 6.9
423.19 K, 5500 kPa	571.4 ± 6.5
428.11 K, 2500 kPa	485.7 ± 5.3
428.14 K, 5500 kPa	549.7 ± 6.3
428.15 K, 7000 kPa	575.1 ± 6.6
428.18 K, 4000 kPa	520.9 ± 5.6
428.19 K, 8500 kPa	605.5 ± 6.7
428.2 K, 10000 kPa	625.5 ± 6.8
433.05 K, 2500 kPa	463.5 ± 5.1
433.05 K, 7000 kPa	560.1 ± 6.4
433.08 K, 10000 kPa	610.8 ± 6.6
433.18 K, 4000 kPa	498.5 ± 5.4
433.22 K, 5500 kPa	530.9 ± 6.3
433.22 K, 8500 kPa	586.5 ± 6.5
438.11 K, 2500 kPa	443 ± 5
438.13 K, 7000 kPa	540.4 ± 6.4
438.13 K, 10000 kPa	590.9 ± 6.5
438.14 K, 5500 kPa	507.9 ± 6.2
438.16 K, 8500 kPa	569 ± 6.4
438.24 K, 4000 kPa	477.2 ± 5.2
443.06 K, 4000 kPa	454.3 ± 5
443.08 K, 5500 kPa	487.7 ± 6.1
443.12 K, 10000 kPa	575 ± 6.5
443.14 K, 8500 kPa	548.7 ± 6.3
443.18 K, 2500 kPa	418.1 ± 4.7
443.23 K, 7000 kPa	519.9 ± 6.2
448.06 K, 2500 kPa	394.3 ± 4.6
448.07 K, 5500 kPa	467.5 ± 5.9
448.16 K, 4000 kPa	435.5 ± 4.9
448.22 K, 7000 kPa	500.2 ± 6.1
448.23 K, 8500 kPa	529.7 ± 6.2
448.23 K, 10000 kPa	557.1 ± 6.4
453.07 K, 5500 kPa	448.8 ± 6
453.18 K, 4000 kPa	411.5 ± 4.7
453.18 K, 10000 kPa	544 ± 6.2
453.2 K, 2500 kPa	372.4 ± 4.4
453.21 K, 8500 kPa	515.2 ± 6.2
453.24 K, 7000 kPa	483.8 ± 6.1
458.06 K, 4000 kPa	389.5 ± 4.5
458.08 K, 7000 kPa	464.6 ± 6.1
458.12 K, 10000 kPa	524.8 ± 6.1
458.18 K, 2500 kPa	350.8 ± 4.2
458.22 K, 8500 kPa	497.9 ± 6
458.24 K, 5500 kPa	426.1 ± 5.9
463.1 K, 10000 kPa	507.9 ± 5.9
463.13 K, 2500 kPa	326.7 ± 4.1
463.14 K, 8500 kPa	480.9 ± 5.9
463.16 K, 5500 kPa	409.6 ± 5.9
463.23 K, 4000 kPa	368.2 ± 4.4
463.25 K, 7000 kPa	445.2 ± 5.9
468.06 K, 7000 kPa	427.3 ± 5.8
468.1 K, 10000 kPa	491.9 ± 6.2
468.15 K, 8500 kPa	459.5 ± 5.8
468.19 K, 4000 kPa	347.2 ± 4.3
468.22 K, 5500 kPa	389.7 ± 5.9
473.07 K, 4000 kPa	324.5 ± 4.1
473.11 K, 10000 kPa	479 ± 6.2
473.12 K, 8500 kPa	443.1 ± 5.9
473.15 K, 7000 kPa	408.5 ± 5.9
473.22 K, 5500 kPa	366 ± 5.9

Settings	speed of sound [m/s]
393.16 K, Liquid, Brillouin Light Scattering	609.1 ± 6.2
398.07 K, Gas, Brillouin light scattering	170 ± 2
398.11 K, Liquid, Brillouin Light Scattering	580.1 ± 5.9
403.24 K, Liquid, Brillouin Light Scattering	558 ± 5.7
408.22 K, Gas, Brillouin light scattering	167.8 ± 2
408.23 K, Liquid, Brillouin Light Scattering	537.6 ± 5.5
413.2 K, Liquid, Brillouin Light Scattering	515.8 ± 5.3
418.16 K, Gas, Brillouin light scattering	164.7 ± 1.9
418.24 K, Liquid, Brillouin Light Scattering	494.4 ± 5.1
423.15 K, Liquid, Brillouin Light Scattering	476 ± 4.9
428.21 K, Gas, Brillouin light scattering	161.2 ± 1.9
428.24 K, Liquid, Brillouin Light Scattering	453.8 ± 4.7
433.05 K, Liquid, Brillouin Light Scattering	430.3 ± 4.4
438.17 K, Gas, Brillouin light scattering	155.3 ± 1.8
438.19 K, Liquid, Brillouin Light Scattering	405.8 ± 4.2
443.09 K, Liquid, Brillouin Light Scattering	387.3 ± 4
448.13 K, Gas, Brillouin light scattering	148.4 ± 1.8
448.23 K, Liquid, Brillouin Light Scattering	360.3 ± 3.8
453.1 K, Liquid, Brillouin Light Scattering	339.5 ± 3.6
458.19 K, Liquid, Brillouin Light Scattering	313.6 ± 3.3
458.29 K, Gas, Brillouin light scattering	139.8 ± 1.7
463.17 K, Gas, Brillouin light scattering	135.7 ± 1.7
463.23 K, Liquid, Brillouin Light Scattering	287.1 ± 3.1
468.18 K, Liquid, Brillouin Light Scattering	265 ± 2.9
468.26 K, Gas, Brillouin light scattering	130.6 ± 1.6
473.15 K, Gas, Brillouin light scattering	124.5 ± 1.6
473.17 K, Liquid, Brillouin Light Scattering	236.5 ± 2.6
478.08 K, Gas, Brillouin light scattering	119 ± 1.6
478.08 K, Liquid, Brillouin Light Scattering	206.1 ± 2.3
483.2 K, Liquid, Brillouin Light Scattering	177.7 ± 2.1
483.29 K, Gas, Brillouin light scattering	111.8 ± 1.5
488.11 K, Liquid, Brillouin Light Scattering	142.8 ± 1.9
488.15 K, Gas, Brillouin light scattering	104.9 ± 1.5
493.06 K, Liquid, Brillouin Light Scattering	103.7 ± 1.6
493.15 K, Gas, Brillouin light scattering	96.9 ± 1.4
